Laboratory results taken from PubChem BioAssay AID330 (DTP/NCI, 2004).
“And” between values parts separate entries of the source, which are not always exact repeats. Identical values can stand only once. Toxic doses and inconclusive results are not listed. How the source made its calls: active means survival T/C of 150% or more; inactive means T/C below 125% in these data.

System: P388 leukemia ip, CD2F1 mice, survival T/C
Assay: NCI In Vivo Anticancer Drug Screen. Data for tumor model P388 Leukemia (intraperitoneal) in CD2F1 (CDF1) mice
Conditions: endpoint: median survival time, higher = longer survival
In short: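 Mice carrying the transplanted tumor received test compound or vehicle. Survival was recorded in each group, and the value is the treated-group measurement divided by that of the vehicle-treated control group.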

[1] = dose: 12.5 mg/kg/injection, schedule: Q01DX009 (ip), vehicle: Klucel (hydroxypropylcellulose) (HPC)
[2] = dose: 25.0 mg/kg/injection, schedule: Q01DX009 (ip), vehicle: Klucel (hydroxypropylcellulose) (HPC)
[3] = dose: 60.0 mg/kg/injection, schedule: Q01DX005 (ip), vehicle: saline with Tween-80
[4] = dose: 120.0 mg/kg/injection, schedule: Q01DX005 (ip), vehicle: saline with Tween-80
[5] = dose: 240.0 mg/kg/injection, schedule: Q01DX005 (ip), vehicle: saline with Tween-80
[6] = dose: 50.0 mg/kg/injection, schedule: Q01DX005 (ip), vehicle: Klucel (hydroxypropylcellulose) (HPC)
[7] = dose: 100.0 mg/kg/injection, schedule: Q01DX005 (ip), vehicle: Klucel (hydroxypropylcellulose) (HPC)
[8] = dose: 50.0 mg/kg/injection, schedule: Q01DX005 (ip), vehicle: saline with Tween-80
[9] = dose: 100.0 mg/kg/injection, schedule: Q01DX005 (ip), vehicle: saline with Tween-80
[10] = dose: 200.0 mg/kg/injection, schedule: Q01DX005 (ip), vehicle: saline with Tween-80
[11] = dose: 25.0 mg/kg/injection, schedule: Q01DX009 (ip), vehicle: saline with Tween-80

Measured: T/C

O=C1C=CC(=O)N1n1cccc1
inactive: dose: 6.25 mg/kg/injection, schedule: Q01DX009 (ip), vehicle: Klucel (hydroxypropylcellulose) (HPC) 105 % of control | [1] 98 % of control | [2] 90 % of control

Cc1nc2c(n1C)C(=O)c1nc[nH]c(=O)c1C2=O
inactive: dose: 1.75 mg/kg/injection, schedule: Q01DX005 (ip), vehicle: water 102 % of control | dose: 3.5 mg/kg/injection, schedule: Q01DX005 (ip), vehicle: water 92 % of control | dose: 7.0 mg/kg/injection, schedule: Q01DX005 (ip), vehicle: water 96 % of control | dose: 14.0 mg/kg/injection, schedule: Q01DX005 (ip), vehicle: water 96 % of control

CN1C(c2ccccc2)CC(C)(O)CC1c1ccccc1 (stereo unspecified)
inactive: [3] 97 % of control | [4] 98 % of control

COc1cc2cc(-c3cc(OC)c(OC)c(OC)c3)c3c(c2cc1OC)CNC3
inactive: dose: 3.12 mg/kg/injection, schedule: Q04DX003 (ip), vehicle: saline with Tween-80 100 % of control | dose: 6.25 mg/kg/injection, schedule: Q04DX003 (ip), vehicle: saline with Tween-80 105 % of control | dose: 12.5 mg/kg/injection, schedule: Q04DX003 (ip), vehicle: saline with Tween-80 100 % of control | dose: 25.0 mg/kg/injection, schedule: Q04DX003 (ip), vehicle: saline with Tween-80 98 % of control | dose: 50.0 mg/kg/injection, schedule: Q04DX003 (ip), vehicle: saline with Tween-80 97 % of control

Nc1ccccc1C(=O)CCc1c[nH]c2ccccc12
inactive: [3] 96 % of control | [4] 90 % of control | [5] 86 % of control

O=C1c2ccc3ccccc3c2CCC1C1([n+]2ccccc2)CCc2c(ccc3ccccc23)C1=O (stereo unspecified)
inactive: dose: 6.25 mg/kg/injection, schedule: Q01DX005 (ip), vehicle: Klucel (hydroxypropylcellulose) (HPC) 99 % of control and 109 % of control | dose: 12.5 mg/kg/injection, schedule: Q01DX005 (ip), vehicle: Klucel (hydroxypropylcellulose) (HPC) 100 % of control and 103 % of control and 98 % of control | dose: 25.0 mg/kg/injection, schedule: Q01DX005 (ip), vehicle: Klucel (hydroxypropylcellulose) (HPC) 99 % of control and 100 % of control and 112 % of control

CC(C)(C)c1ccc(C(c2ccc(C(C)(C)C)cc2)C(Cl)(Cl)Cl)cc1
inactive: dose: 100.0 mg/kg/injection, schedule: Q04DX003 (ip), vehicle: saline with Tween-80 104 % of control | dose: 200.0 mg/kg/injection, schedule: Q04DX003 (ip), vehicle: saline with Tween-80 100 % of control | dose: 400.0 mg/kg/injection, schedule: Q04DX003 (ip), vehicle: saline with Tween-80 100 % of control

C=C(C)C(=O)O[C@H]1[C@H]2[C@H](OC(=O)[C@H]2C)[C@H](O)[C@@H](C)[C@@H]2C=CC(=O)[C@]21C
inactive: dose: 7.5 mg/kg/injection, schedule: Q01DX009 (ip), vehicle: saline with Tween-80 118 % of control | dose: 15.0 mg/kg/injection, schedule: Q01DX009 (ip), vehicle: saline with Tween-80 113 % of control | dose: 30.0 mg/kg/injection, schedule: Q01DX009 (ip), vehicle: saline with Tween-80 124 % of control

O=c1c(CN(CCO)CCO)c(-c2ccccc2)sc2ccccc12
inactive: dose: 12.5 mg/kg/injection, schedule: Q04DX002 (ip), vehicle: saline with Tween-80 100 % of control | dose: 25.0 mg/kg/injection, schedule: Q04DX002 (ip), vehicle: saline with Tween-80 100 % of control | dose: 50.0 mg/kg/injection, schedule: Q04DX002 (ip), vehicle: saline with Tween-80 97 % of control | dose: 100.0 mg/kg/injection, schedule: Q04DX002 (ip), vehicle: saline with Tween-80 91 % of control

O=C(Nc1ccc(C(=O)c2ccccc2)cc1)Nc1ccc(Cl)c(Cl)c1
inactive: dose: 15.0 mg/kg/injection, schedule: Q01DX005 (ip), vehicle: Klucel (hydroxypropylcellulose) (HPC) 93 % of control | dose: 30.0 mg/kg/injection, schedule: Q01DX005 (ip), vehicle: Klucel (hydroxypropylcellulose) (HPC) 96 % of control | dose: 60.0 mg/kg/injection, schedule: Q01DX005 (ip), vehicle: Klucel (hydroxypropylcellulose) (HPC) 89 % of control | dose: 240.0 mg/kg/injection, schedule: Q01DX005 (ip), vehicle: Klucel (hydroxypropylcellulose) (HPC) 86 % of control

CC(C)(C)c1ccc(/C=N/NC(=O)c2cccnc2)cc1
inactive: [6] 98 % of control | [7] 103 % of control

COc1cccc(-c2ccncc2)c1
inactive: [8] 102 % of control | [9] 93 % of control | [10] 93 % of control

C=Cc1cc[n+](CC(=O)c2ccc(-c3ccccc3)cc2)cc1
inactive: [1] 103 % of control | [2] 90 % of control | dose: 50.0 mg/kg/injection, schedule: Q01DX009 (ip), vehicle: Klucel (hydroxypropylcellulose) (HPC) 92 % of control

CCCCCN(CCCCC)c1nsc(Cl)n1
inactive: [11] 108 % of control | dose: 50.0 mg/kg/injection, schedule: Q01DX009 (ip), vehicle: saline with Tween-80 103 % of control | dose: 100.0 mg/kg/injection, schedule: Q01DX009 (ip), vehicle: saline with Tween-80 100 % of control

C/C(O)=C(/N=Nc1ccc(-c2nc3ccc(C)c(S(=O)(=O)O)c3s2)cc1)C(=O)Nc1ccccc1
inactive: dose: 6.25 mg/kg/injection, schedule: Q01DX009 (ip), vehicle: saline with Tween-80 104 % of control | dose: 12.5 mg/kg/injection, schedule: Q01DX009 (ip), vehicle: saline with Tween-80 95 % of control | [11] 96 % of control

Cc1ccc2occ3c(=O)n(C)nc-3c2c1
inactive: [3] 95 % of control | [4] 91 % of control | [5] 94 % of control

Cc1ccc(C(=O)Nc2c(C)cccc2C)cc1
inactive: [3] 98 % of control | [4] 92 % of control

CCOC(=O)C(=C/C=C/N(C)C)C(=O)OCC
inactive: dose: 100.0 mg/kg/injection, schedule: Q01DX001 (ip), vehicle: saline 100 % of control | dose: 200.0 mg/kg/injection, schedule: Q01DX001 (ip), vehicle: saline 104 % of control

Clc1nc2nc(Cl)c(Cl)n2nc1Cl
inactive: dose: 6.25 mg/kg/injection, schedule: Q04DX002 (ip), vehicle: saline 109 % of control | dose: 12.5 mg/kg/injection, schedule: Q04DX002 (ip), vehicle: saline 107 % of control | dose: 25.0 mg/kg/injection, schedule: Q04DX002 (ip), vehicle: saline 106 % of control

CC(NC(=O)C1CCCN1C(=O)OCc1ccccc1)C(=O)O (stereo unspecified)
inactive: [8] 106 % of control | [9] 100 % of control | [10] 100 % of control

NC(=S)c1ncn(C2OC(CO)C(O)C2O)c1N (stereo unspecified)
inactive: dose: 12.5 mg/kg/injection, schedule: Q01DX009 (ip), vehicle: saline 104 % of control | dose: 25.0 mg/kg/injection, schedule: Q01DX009 (ip), vehicle: saline 101 % of control | dose: 50.0 mg/kg/injection, schedule: Q01DX009 (ip), vehicle: saline 101 % of control | dose: 100.0 mg/kg/injection, schedule: Q01DX009 (ip), vehicle: saline 112 % of control | dose: 200.0 mg/kg/injection, schedule: Q01DX009 (ip), vehicle: saline 112 % of control | dose: 400.0 mg/kg/injection, schedule: Q01DX009 (ip), vehicle: saline 101 % of control

COc1cc(Br)c(C2=C3c4cc(OC)c(OC)cc4CCN3C(=O)C2=O)cc1OC
inactive: [6] 99 % of control | [7] 93 % of control | dose: 200.0 mg/kg/injection, schedule: Q01DX005 (ip), vehicle: Klucel (hydroxypropylcellulose) (HPC) 90 % of control

CC1(C)CC(=O)C(C)(CCC#N)C(=O)C1
inactive: dose: 100.0 mg/kg/injection, schedule: Q04DX003 (ip), vehicle: saline 102 % of control | dose: 200.0 mg/kg/injection, schedule: Q04DX003 (ip), vehicle: saline 99 % of control | dose: 400.0 mg/kg/injection, schedule: Q04DX003 (ip), vehicle: saline 99 % of control

COc1cc2c(cc1C/C=C/c1ccccc1)OCO2
inactive: [8] 105 % of control | [9] 109 % of control | [10] 112 % of control
